Structures are written as SMILES. Calls of active or inactive are those of the source. No cut-off for these calls is given here. Where a SMILES comes first, the peptide text is derived from it. [ ]: non-standard residue; d: D form. Aib = CC(C)(N)C(=O)O

Series [1] concerns the target Glucagon-like peptide 1 receptor (Homo sapiens, UniProt P43220). Description: Agonist activity at human GLP-1R expressed in HEK293 cells assessed as cAMP release incubated for 20 min by HTRF analysis. Format: functional, cell-based. (Time-resolved FRET reads energy transfer from a long-lived donor to a nearby acceptor.)
Series [2] concerns Mus musculus. Description: Hypoglycemic activity in ICR mouse assessed as improvement in glucose tolerance at 25 nmol/kg, ip administered 30 min before oral glucose administration and measured upto 120 mins by OGTT. Format: functional, organism-based.
The subject of series [3] is Mus musculus. The series can be described thus: Anorectic activity in ICR mouse assessed as decrease in food intake at 25 nmol/kg, ip and measured after 9 hrs. Type of series: functional, organism-based.
The subject of series [4] is Mus musculus. The series can be described thus: Anorectic activity in ICR mouse assessed as decrease in food intake at 25 nmol/kg, ip and measured after 24 hrs. Format: functional, organism-based.
Series [5] deals with T1, CCK2R (gastrin/cholecystokinin type B receptor) (Homo sapiens, UniProt P32239).
T1 sequence (P32239 whole entry): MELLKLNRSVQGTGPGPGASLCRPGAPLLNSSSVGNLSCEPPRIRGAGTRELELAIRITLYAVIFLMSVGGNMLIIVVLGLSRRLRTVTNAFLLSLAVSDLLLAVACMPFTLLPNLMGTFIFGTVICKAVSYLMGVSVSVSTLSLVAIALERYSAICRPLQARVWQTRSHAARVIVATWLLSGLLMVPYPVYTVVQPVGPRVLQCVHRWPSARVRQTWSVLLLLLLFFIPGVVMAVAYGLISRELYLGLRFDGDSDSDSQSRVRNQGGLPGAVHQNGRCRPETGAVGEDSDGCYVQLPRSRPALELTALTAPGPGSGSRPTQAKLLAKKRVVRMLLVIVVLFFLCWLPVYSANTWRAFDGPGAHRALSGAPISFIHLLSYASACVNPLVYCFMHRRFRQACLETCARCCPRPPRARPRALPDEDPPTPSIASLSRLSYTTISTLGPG
The series can be described thus: Agonist activity at human CCK2R expressed in HEK293 cells assessed as ERK1/2 phosphorylation incubated for 5 mins by AlphaScreen assay. Type of series: functional, cell-based. To be noted: human, HEK293 cells expressing human CCK2R. In general terms: Bead proximity is the source of the signal in Alpha formats.

The target of series [6] is T2, Cholecystokinin receptor type A (Homo sapiens, UniProt P32238).
T2 sequence (P32238 whole entry): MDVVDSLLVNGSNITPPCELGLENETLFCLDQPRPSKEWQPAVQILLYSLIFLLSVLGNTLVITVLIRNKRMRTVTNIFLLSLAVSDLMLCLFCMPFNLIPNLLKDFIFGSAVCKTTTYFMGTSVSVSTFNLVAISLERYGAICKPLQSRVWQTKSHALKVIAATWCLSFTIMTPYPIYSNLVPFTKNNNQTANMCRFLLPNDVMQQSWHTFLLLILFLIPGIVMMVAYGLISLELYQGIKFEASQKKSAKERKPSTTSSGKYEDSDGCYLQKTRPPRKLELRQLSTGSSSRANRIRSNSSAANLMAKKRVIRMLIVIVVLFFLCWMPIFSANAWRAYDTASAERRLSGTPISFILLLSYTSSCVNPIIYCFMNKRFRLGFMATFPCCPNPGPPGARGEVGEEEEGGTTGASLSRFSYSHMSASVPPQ
Description: Agonist activity at human CCK1R expressed in HEK293 cells assessed as ERK1/2 phosphorylation incubated for 5 mins by AlphaScreen assay. Format: functional, cell-based. The note with it: hek293.

Glucagon-like peptide 1 receptor, sequence (P43220 whole entry): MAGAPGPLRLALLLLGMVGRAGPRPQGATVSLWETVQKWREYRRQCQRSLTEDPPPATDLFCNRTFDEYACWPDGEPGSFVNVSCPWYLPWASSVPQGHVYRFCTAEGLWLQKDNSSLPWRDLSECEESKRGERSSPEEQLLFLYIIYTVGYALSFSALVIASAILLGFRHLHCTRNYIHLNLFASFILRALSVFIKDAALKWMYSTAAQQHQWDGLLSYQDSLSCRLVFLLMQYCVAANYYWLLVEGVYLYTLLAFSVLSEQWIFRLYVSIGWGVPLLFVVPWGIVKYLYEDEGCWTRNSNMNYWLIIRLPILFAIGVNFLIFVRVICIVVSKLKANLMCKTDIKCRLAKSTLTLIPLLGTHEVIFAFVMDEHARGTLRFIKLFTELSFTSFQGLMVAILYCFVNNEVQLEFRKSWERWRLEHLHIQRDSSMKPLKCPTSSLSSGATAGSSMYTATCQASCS

Turning to `CC[C@H](C)[C@H](NC(=O)[C@H](CC(C)C)NC(=O)[C@H](Cc1c[nH]c2ccccc12)NC(=O)[C@H](CCC(=O)O)NC(=O)[C@@H](NC(=O)[C@H](Cc1ccccc1)NC(=O)[C@H](CCC(=O)O)NC(=O)[C@H](CCCCN)NC(=O)[C@H](C)NC(=O)[C@H](C)NC(=O)[C@H](CCC(=O)O)NC(=O)[C@H](CCC(=O)O)NC(=O)[C@H](CCC(=O)O)NC(=O)[C@H](CC(C)C)NC(=O)[C@@H](NC(=O)[C@H](CCC(=O)O)NC(=O)[C@@H](NC(=O)[C@@H](NC(=O)[C@H](CC(=O)O)NC(=O)[C@H](CC(N)=O)NC(=O)[C@@H](NC(=O)[C@H](Cc1ccc(O)cc1)NC(=O)[C@@H](NC(=O)CNC(=O)[C@H](CCC(=O)O)NC(=O)C(C)(C)NC(=O)[C@@H](N)Cc1cnc[nH]1)[C@@H](C)O)[C@@H](C)O)C(C)C)[C@@H](C)O)[C@@H](C)O)[C@@H](C)CC)C(=O)N[C@@H](CCCCN)C(=O)NCC(=O)N[C@@H](CCCCN)C(N)=O` (H-H[Aib]EGTYTNDVTETLEEEAAKEFIEWLIKGK-NH2), the EC50 (usually the concentration that produces a half-maximal response) in series [1] stood at 0.056 nM.

Turning to `CCCC[C@H](NC(=O)[C@H](Cc1ccc(CS(=O)(=O)O)cc1)NC(=O)[C@H](CC(=O)O)NC(=O)COCCOCCNC(=O)COCCOCCNC(=O)[C@H](CCCCN)NC(=O)CNC(=O)[C@H](CCCCN)NC(=O)[C@@H](NC(=O)[C@H](CC(C)C)NC(=O)[C@H](Cc1c[nH]c2ccccc12)NC(=O)[C@H](CCC(=O)O)NC(=O)[C@@H](NC(=O)[C@H](Cc1ccccc1)NC(=O)[C@H](CCC(=O)O)NC(=O)[C@H](CCCCN)NC(=O)[C@H](C)NC(=O)[C@H](C)NC(=O)[C@H](CCC(=O)O)NC(=O)[C@H](CCC(=O)O)NC(=O)[C@H](CCC(=O)O)NC(=O)[C@H](CC(C)C)NC(=O)[C@@H](NC(=O)[C@H](CCC(=O)O)NC(=O)[C@@H](NC(=O)[C@@H](NC(=O)[C@H](CC(=O)O)NC(=O)[C@H](CC(N)=O)NC(=O)[C@@H](NC(=O)[C@H](Cc1ccc(O)cc1)NC(=O)[C@@H](NC(=O)CNC(=O)[C@H](CCC(=O)O)NC(=O)C(C)(C)NC(=O)[C@@H](N)Cc1cnc[nH]1)[C@@H](C)O)[C@@H](C)O)C(C)C)[C@@H](C)O)[C@@H](C)O)[C@@H](C)CC)[C@@H](C)CC)C(=O)NCC(=O)N[C@@H](Cc1c[nH]c2ccccc12)C(=O)N[C@@H](CCCC)C(=O)N(C)[C@H](CC(=O)O)C(=O)N(C)[C@@H](Cc1ccccc1)C(N)=O`, the outcome in the series on Mus musculus [2], in the series on Mus musculus [3] and in the series with Mus musculus [4] was Active. Also, the EC50 at 5 min in series [5] was above 100 nM. Also, the EC50 in series [6] stood at 0.95 nM; in series [1] (hek293) it was 0.092 nM.

`CCCC[C@H](NC(=O)[C@H](Cc1ccc(CS(=O)(=O)O)cc1)NC(=O)[C@H](CC(=O)O)NC(=O)COCCOCCNC(=O)COCCOCCNC(=O)[C@H](CCCNC(=N)N)NC(=O)CNC(=O)[C@H](CCCCNC(=O)COCCOCCNC(=O)COCCOCCNC(=O)CC[C@H](NC(=O)CCCCCCCCCCCCCCCCC(=O)O)C(=O)O)NC(=O)[C@@H](NC(=O)[C@H](CC(C)C)NC(=O)[C@H](Cc1c[nH]c2ccccc12)NC(=O)[C@H](C)NC(=O)[C@@H](NC(=O)[C@H](Cc1ccccc1)NC(=O)[C@H](CCC(=O)O)NC(=O)[C@H](CCCCN)NC(=O)[C@H](C)NC(=O)[C@H](C)NC(=O)[C@H](CCC(N)=O)NC(=O)CNC(=O)[C@H](CCC(=O)O)NC(=O)[C@H](CC(C)C)NC(=O)[C@H](Cc1ccc(O)cc1)NC(=O)[C@H](CO)NC(=O)[C@H](CO)NC(=O)[C@@H](NC(=O)[C@H](CC(=O)O)NC(=O)[C@H](CO)NC(=O)[C@@H](NC(=O)[C@H](Cc1ccccc1)NC(=O)[C@@H](NC(=O)CNC(=O)[C@H](CCC(=O)O)NC(=O)[C@H](C)NC(=O)[C@@H](N)Cc1cnc[nH]1)[C@@H](C)O)[C@@H](C)O)C(C)C)[C@@H](C)CC)C(C)C)C(=O)NCC(=O)N[C@@H](Cc1c[nH]c2ccccc12)C(=O)N[C@@H](CCCC)C(=O)N(C)[C@H](CC(=O)O)C(=O)N(C)[C@@H](Cc1ccccc1)C(N)=O`: the result with Mus musculus [3] and in the series on Mus musculus [4] was Active. For the same compound, the EC50 at 5 min in series [5] was above 100 nM. The EC50 in series [6] was 1.19 nM.

For the compound `CCCC[C@H](NC(=O)[C@H](Cc1ccc(CS(=O)(=O)O)cc1)NC(=O)[C@H](CC(=O)O)NC(=O)COCCOCCNC(=O)COCCOCCNC(=O)[C@H](CCCCN)NC(=O)CNC(=O)[C@H](CCCCNC(=O)COCCOCCNC(=O)COCCOCCNC(=O)CC[C@H](NC(=O)CCCCCCCCCCCCCCCCC(=O)O)C(=O)O)NC(=O)[C@@H](NC(=O)[C@H](CC(C)C)NC(=O)[C@H](Cc1c[nH]c2ccccc12)NC(=O)[C@H](CCC(=O)O)NC(=O)[C@@H](NC(=O)[C@H](Cc1ccccc1)NC(=O)[C@H](CCC(=O)O)NC(=O)[C@H](CCCCN)NC(=O)[C@H](C)NC(=O)[C@H](C)NC(=O)[C@H](CCC(=O)O)NC(=O)[C@H](CCC(=O)O)NC(=O)[C@H](CCC(=O)O)NC(=O)[C@H](CC(C)C)NC(=O)[C@@H](NC(=O)[C@H](CCC(=O)O)NC(=O)[C@@H](NC(=O)[C@@H](NC(=O)[C@H](CC(=O)O)NC(=O)[C@H](CC(N)=O)NC(=O)[C@@H](NC(=O)[C@H](Cc1ccc(O)cc1)NC(=O)[C@@H](NC(=O)CNC(=O)[C@H](CCC(=O)O)NC(=O)C(C)(C)NC(=O)[C@@H](N)Cc1cnc[nH]1)[C@@H](C)O)[C@@H](C)O)C(C)C)[C@@H](C)O)[C@@H](C)O)[C@@H](C)CC)[C@@H](C)CC)C(=O)NCC(=O)N[C@@H](Cc1c[nH]c2ccccc12)C(=O)N[C@@H](CCCC)C(=O)N(C)[C@H](CC(=O)O)C(=O)N(C)[C@@H](Cc1ccccc1)C(N)=O`, the result in the series on Mus musculus [2], in the series on Mus musculus [3] and in the series with Mus musculus [4] was Active. Besides, the EC50 at 5 min in series [5] was above 100 nM. Moreover, the EC50 stood at 1.03 nM in series [6] and 0.31 nM in series [1] (hek293).

As for `CCCC[C@H](NC(=O)[C@H](Cc1ccc(CS(=O)(=O)O)cc1)NC(=O)[C@H](CC(=O)O)NC(=O)COCCOCCNC(=O)COCCOCCNC(=O)[C@H](CCCNC(=N)N)NC(=O)CNC(=O)[C@H](CCCCN)NC(=O)[C@@H](NC(=O)[C@H](CC(C)C)NC(=O)[C@H](Cc1c[nH]c2ccccc12)NC(=O)[C@H](C)NC(=O)[C@@H](NC(=O)[C@H](Cc1ccccc1)NC(=O)[C@H](CCC(=O)O)NC(=O)[C@H](CCCCN)NC(=O)[C@H](C)NC(=O)[C@H](C)NC(=O)[C@H](CCC(N)=O)NC(=O)CNC(=O)[C@H](CCC(=O)O)NC(=O)[C@H](CC(C)C)NC(=O)[C@H](Cc1ccc(O)cc1)NC(=O)[C@H](CO)NC(=O)[C@H](CO)NC(=O)[C@@H](NC(=O)[C@H](CC(=O)O)NC(=O)[C@H](CO)NC(=O)[C@@H](NC(=O)[C@H](Cc1ccccc1)NC(=O)[C@@H](NC(=O)CNC(=O)[C@H](CCC(=O)O)NC(=O)[C@H](C)NC(=O)[C@@H](N)Cc1cnc[nH]1)[C@@H](C)O)[C@@H](C)O)C(C)C)[C@@H](C)CC)C(C)C)C(=O)NCC(=O)N[C@@H](Cc1c[nH]c2ccccc12)C(=O)N[C@@H](CCCC)C(=O)N(C)[C@H](CC(=O)O)C(=O)N(C)[C@@H](Cc1ccccc1)C(N)=O`, the outcome with Mus musculus [2], in the series with Mus musculus [3] and in the series on Mus musculus [4] was Active. For the same compound, the EC50 at 5 min in series [5] is above 100 nM. The EC50 in series [6] came to 1.14 nM.

The record behind these values is ChEMBL document CHEMBL5143608, “Peptide-based long-acting co-agonists of GLP-1 and cholecystokinin 1 receptors as novel anti-diabesity agents” (Eur J Med Chem, 2022).
